Among the data in patent publication US9974305B2, “Fungicidal or bactericidal composition, and method for controlling diseases” (NISSAN CHEMICAL INDUSTRIES, LTD., priority 2014, dated 2018) are Preventive value, pest or weed control and melting point values, retold here.

The subject of series [1] is wheat glume blotch (Leptosphaeria nodorum). The series is described as follows: Efficacy test on wheat glume blotch, spray treatment and prevention test (Test Example 8). In kind it is in vivo. To be noted: spray, lesion area ratio; for pest or weed control at 3 ppm / pest or weed control at 10 ppm: Parastagonospora nodorum, read-out: Preventive value. A digest of the protocol: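 Wheat seedlings (Haruyutaka, 1-leaf stage) sprayed with diluted two-component formulation; one day later spray-inoculated with L. nodorum spores (1×100,000 cfu/ml), 48 h at 20° C, >95% RH, then 7 days greenhouse. Lesion area ratio gives preventive value versus untreated; synergy assessed by Colby method.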

Series [2] deals with rice sheath blight fungus (Rhizoctonia solani). The series is described as follows: Efficacy test on rice sheath blight, spray treatment and prevention test (Test Examples 5-6). The class given is in vivo. To be noted: single compound 250 ppm, lesion height. As to the method: An agent comprising the following compound listed in Table 2 (active ingredient A) and the compound listed in Table 6 (C17: active ingredient B) as active ingredients, was prepared in accordance with the above Formulation Example. The agent was diluted with water to a predetermined concentration to obtain a test solution. Then, in a plastic pot of 90 cm^3, rice (Nipponbare) was seeded by 5 grains in one place, and to the grown seedlings in 4 seedling phase, the test solution was applied by a spray gun in an amount of 5 ml per pot, for treatment.
One day after the treatment, 1 g of mycelium flora of rice sheath blight fungus (Rhizoctonia solani) cultured in bran medium, was put by […] to a close-to-ground part of seedlings, and the pot was placed in a moist chamber set in temperature of 25° C. and humidity more than 95% RH for eight days. The height of the lesions which appeared in the highest position from the close-to-ground part (lesion height) was investigated, and the preventive value was calculated in accordance with the following formula. Preventive value=[1−(treated plot lesion height/untreated plot lesion height)]×100
Further, from the preventive value for each agent concentration, synergy was calculated by using the Colby method (Colby S. R. 1976, Weeds 15, 20-22).
Using the following compound listed in Table 2 (active ingredient A) and the compound listed in Table 6 (C17: active ingredient B) as active ingredients, a preventive test on rice sheath blight was conducted in accordance with the above Test Example 5.

Take `CC(C)O/N=C(/CNC(=O)c1ccccc1C(F)(F)F)c1ncc(Cl)cc1Cl` [Compound No. 4]: the Preventive value in series [1] (single compound 3 ppm) is listed as 40; in series [1] (single compound 10 ppm) it was 65; in series [2] (Test Example 5), 7.

With `COc1c(Cl)cnc(C(CNC(=O)c2ccccc2C(F)(F)F)=NOC(C)C)c1Cl` [Compound No. 9], the results for the Preventive value in series [1] (single compound 3 ppm), in series [1] (single compound 10 ppm) and in series [2] (Test Example 6) were 60, 75 and 10, respectively.

What is called melting point is the temperature, or range, at which the solid turns liquid. As to `CC#Cc1cnc(/C(CNC(=O)c2cn(C)nc2C(F)F)=N\OC(C)C)c(Cl)c1` [Compound No. 20, (Z)—N-[2-[3-chloro-5-(1-propynyl)pyridin-2-yl]-2-(isopropoxyimino)ethyl]-3-difluoromethyl-1-methyl-1H-pyrazole-4-carboxamide], the melting point is 102 to 103 °C. In addition, in series [1] (single compound 3 ppm), the pest or weed control at 3 ppm amounted to 80%. For the same compound, the pest or weed control at 10 ppm in series [1] (single compound 10 ppm) was 85%. For the same compound, the Preventive value in series [2] (Test Example 5) came out at 0.

`CC(C)O/N=C(/CNC(=O)c1cn(C)nc1C(F)F)c1ncc(C#CC2CC2)cc1Cl` [Compound No. 25, (Z)—N-[2-[3-chloro-5-(cyclopropylethynyl)pyridin-2-yl]-2-(isopropoxyimino)ethyl]-3-difluoromethyl-1-methyl-1H-pyrazole-4-carboxamide] showed a melting point of 105 to 107 °C. In series [1] (single compound 3 ppm), the pest or weed control at 3 ppm came to 75%. The pest or weed control at 10 ppm in series [1] (single compound 10 ppm) was 85%. Further, in series [2] (Test Example 6), the Preventive value came out at 8.

With `CC(C)ON=C(CNC(=O)c1ccccc1C(F)(F)F)c1ncc(C(F)(F)F)cc1Cl` [compound 14], the Preventive value in series [1] (single compound 3 ppm) is reported as 75; in series [1] (single compound 10 ppm), 80; in series [2] (Test Example 5), 6.

Consider `CON=C(CNC(=O)c1cn(C)nc1C(F)F)c1ncc(C#CC(C)(C)C)cc1Cl` [compound 28], for which the figures for the Preventive value in series [1] (single compound 3 ppm), in series [1] (single compound 10 ppm) and in series [2] (Test Example 5) were 60, 85 and 9, respectively.
